From patent publication US8536221B2, “Amide derivatives as positive allosteric modulators and methods of use thereof” (AbbVie Inc., priority 2008, dated 2013)

Assays:
human α7 NNR = molecular target: T1, human α7 NNR (Homo sapiens, UniProt P36544); test: Two-electrode voltage-clamp in Xenopus laevis oocytes, potentiation of ACh-evoked α7 currents; type: cell-based; conditions: for degree of potentiation: 0.1 mM ACh-evoked α7 currents, normalized to reference PAM at 10 μM taken as 100%, submaximum ACh without PAM as 0%; for EC50: potentiating 0.1 mM ACh-evoked α7 currents in oocytes
T1 construct: expressed in transfected cells; host or cells: Xenopus laevis oocytes injected with cRNA
T1 sequence (P36544 23-502): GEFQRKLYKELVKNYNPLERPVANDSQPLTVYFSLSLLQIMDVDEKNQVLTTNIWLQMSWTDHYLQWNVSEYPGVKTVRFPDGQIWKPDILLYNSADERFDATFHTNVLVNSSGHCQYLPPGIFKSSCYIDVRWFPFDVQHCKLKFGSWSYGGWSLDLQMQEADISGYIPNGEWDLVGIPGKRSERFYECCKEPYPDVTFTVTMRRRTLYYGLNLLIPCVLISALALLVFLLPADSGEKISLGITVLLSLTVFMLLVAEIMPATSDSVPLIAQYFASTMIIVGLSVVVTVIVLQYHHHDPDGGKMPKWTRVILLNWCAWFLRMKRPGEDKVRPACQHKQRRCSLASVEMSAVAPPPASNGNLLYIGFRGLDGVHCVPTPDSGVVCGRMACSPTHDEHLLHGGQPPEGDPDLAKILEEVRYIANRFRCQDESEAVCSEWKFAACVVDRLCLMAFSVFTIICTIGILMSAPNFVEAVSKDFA
Method: FIG. 2 is a concentration response curve obtained in the same manner for a PAM (Example 10). […] Normalized PAM potentiation is plotted on the Y-axis as a function of the concentration of the test modulator (depicted along the X-axis).
(i) Two-Electrode Voltage-Clamp in Xenopus laevis Oocytes
X. laevis oocytes were prepared for electrophysiological experiments as described in the literature (see for example, Briggs. C. A., et al., Neutropharmacology, 1995, 34: 583-590; Briggs, C. A. et al., Neutropharmacology, 1998, 37: 1095-1102). In brief, three to four lobes from ovaries of female adult X. laevis frogs were removed and defolliculated after treatment with collagenase type IA (2 mg/mL; Sigma) prepared in low-Ca^2+ Barth's solution (90 mM NaCl, 1.0 mM KCl, 0.66 mM NaNO3, 2.4 mM NaHCO3, 10 mM H-IEPES, 2.5 mM sodium pyruvate, 0.82 mM MgCl2, and 0.5% (v/v) penicillin-streptomycin solution, pH=7.55, Sigma) for about 1.5 hours to about 2 hours at about 18° C. under constant agitation to obtain isolated oocytes. The oocytes were injected with about 4 ng to about 6 ng of human α7 NNR cRNA, kept at about 18° C. in a humidified incubator in modified Barth's solution (90 mM NaCl, 1.0 mM KCl, 0.66 mM NaNO3, 2.4 mM NaHCO3, 10 mM HEPES, 2.5 mM sodium pyruvate, 0.74 mM CaCl2, 0.82 mM MgCl2, 0.5% (v/v) penicillin-streptomycin solution, pH 7.55) and used about 2 to 7 days after injection. Responses were measured by two-electrode voltage clamp using a parallel oocyte electrophysiology test station (Abbott, Abbott Park, Ill.) (see for example, Trimbull, J. D., Maslana, E. S., McKenna, D. G., Nemcek, T. A., Niforatos, W., Pan, J. Y., Parihar, A. S., Shieh, C. C., Wilkins, J. A., Briggs, C. A., and Bertrand, D. High throughput electrophysiology using a fully automated, multiplexed recording system, Receptors Channels, 2003, 9: 19-28). During recordings, the oocytes were bathed in Ba^2+—OR2 solution (90 mM NaCl, 2.5 mM KCl, 2.5 mM BaCl2, 1.0 mM MgCl2, 5.0 mM HEPES, and 0.0005 mM atropine, pH 7.4) to prevent activation of Ca^2+-dependent currents and held at −60 mV at room temperature (about 20° C.). Test compounds were given for ˜60 seconds before agonist application and subsequently in the presence of 0.1 mM ACh.

[1] = test system: formalin-induced nociceptive behavior in mice; test: Formalin-induced persistent nociceptive behavior assay; type: in vivo; conditions: 20-45 minutes post formalin injection, 10 mg/kg subcutaneously 10 minutes prior to formalin, versus vehicle
Method: FIG. 3 is a graphical representation of nocifensive response (licking duration) following treatment with vehicle or a PAM (Example 6) followed by exposure to formalin in mice. […] In Phase II (20-45 minutes post formalin injection) a significant reduction (55%) in licking behavior was observed, indicative of pain relief in this time period.
(iv) Formalin-Induced Persistent Nociceptive Behavior Assay
Nociception was assessed using the formalin test. The mice were placed in open plexiglass observation chambers for 30 minutes to allow them to acclimate to their surroundings; then they were removed for formalin administration. Mice were gently restrained while the dorsum of the hind paw was injected with 20 μL of 2.5% formalin into the plantar surface of the right hind paw with a 30-gauge needle. The animals were returned to the chambers and nociceptive behavior was observed immediately after formalin injection. Mirrors were placed in each chamber to enable unhindered observation. Nociceptive behavior was quantified as the time licking the injected paw for continuous 5 minutes (phase I) and 20-45 minutes (phase II), following formalin injection. Formalin-induced flinching/licking behavior was biphasic. The initial acute phase (phase I, 0-5 minutes) was followed by a relatively short quiescent period, which was then followed by a prolonged tonic response (phase II, 20-45 minutes).

α7 NNRs = α7 NNRs (Homo sapiens, UniProt P36544); conditions: IMR-32 cells
Sequence of α7 NNRs (P36544 23-502): as above
Excerpt: (ii) High-Throughput Calcium Flux Assays Using Cells Expressing Endogenous α7 NNRs
As such, PAMs and nicotinic acetylcholine receptor agonists can be identified by using IMR-32 cells that endogenously express various nicotinic receptors including α7 NNRs. […] Accordingly, allosteric modulator compounds described herein can be identified using a fluorescence-based throughput functional assay using cell lines such as IMR-32 neuroblastoma or primary dissociated neurons. […] Any suitable selective α7 agonist can be used.
IMR-32 neuroblastoma cells (ATCC) were grown to confluency in 162 cm^2 tissue culture flasks in minimum essential media supplemented with 10% FBS and 1 mM sodium pyruvate, 0.1 mM non-essential amino acids and 1% antibiotic-antimycotic. […] Calcium flux was measured using a calcium-3 assay kit (Molecular Devices, Sunnyvale, Calif.) or fluo-4. […] Fluorescence measurements were read simultaneously from all the wells by a Fluorometric Imaging Plate Reader (FLIPR) at an excitation wavelength of 480 nm and an emission wavelength of 520 nm. Baseline fluorescence was measured for the first 10 seconds at which 50 μL of 3× concentrations of modulator/test compounds were added to the cell plate and incubated for three to five minutes. The fluorescence intensity was captured every second for the first 1 minute followed by every 2-5 seconds for an additional two to four minutes. […]

SMILES | degree of potentiation (human α7 NNR) [%] | EC50 (human α7 NNR) [nM] | reduction in licking behavior, Phase II [1] [%] | effect on calcium response elicited by agonist in the presence of allosteric modulator (α7 NNRs)
Cn1ccc2cc(CNC(=O)c3ccc(SC(F)(F)F)cc3)ccc21 [Example 10, N-[(1-methyl-1H-indol-5-yl)methyl]-4-[(trifluoromethyl)thio]benzamide] | 91 | 210 |  | 
O=C(NCc1ccc2[nH]ccc2c1)c1ccc(OCC(F)(F)F)nc1 [Example 6, N-(1H-indol-5-ylmethyl)-6-(2,2,2-trifluoroethoxy)nicotinamide] |  |  | 55 | 
Cn1ccc2ccc(CNC(=O)c3ccc(SC(F)(F)F)cc3)cc21 [Example 12, N-[(1-methyl-1H-indol-6-yl)methyl]-4-[(trifluoromethyl)thio]benzamide] | 99 | 1100 |  | 
CCN1C[C@]2(COC(=O)c3ccccc3N3C(=O)C[C@H](C)C3=O)CC[C@H](OC)[C@@]34[C@@H]5C[C@H]6[C@H](OC)[C@@H]5[C@](O)(C[C@@H]6OC)[C@@](O)([C@@H](OC)[C@H]23)[C@@H]14 [methyllycaconitine] |  |  |  | abolished the response
